Measurements published in patent publication US20040234480A1, “Use of oligomeric proanthrocyanidins” (priority 2001, published 2004).

Assays:
[1] = Method C: deoxyribose oxidation in the absence of EDTA (inactive iron complexes)
Source text: (§1) The results are summarized in Table 1; in each case the EC50 values are given in % (w/v).

[2] = Method B: hydroxyl radicals from hydrogen peroxide with iron(II) ions and EDTA, deoxyribose oxidation
Source text: Method B In the presence of iron(II)ions and EDTA, hydroxyl radicals were liberated from hydrogen peroxide and used for the oxidation of deoxyribose. The oxidation product forms a pink-colored compound with thiobarbituric acid. Its concentration corresponds to the optical density at 532 nm. It was investigated whether less deoxyribose is oxidized, i.e. fewer free radicals are liberated, in the presence of the test products. The results are summarized in Table 1; in each case the EC50 values are given in % (w/v).

[3] = target: Xanthin oxidase (Homo sapiens, UniProt P47989); assay: Method D: Xanthin oxidase, superoxide anion by NBT reduction, optical density at 490 nm; format: biochemical
Xanthin oxidase, sequence (P47989 whole entry): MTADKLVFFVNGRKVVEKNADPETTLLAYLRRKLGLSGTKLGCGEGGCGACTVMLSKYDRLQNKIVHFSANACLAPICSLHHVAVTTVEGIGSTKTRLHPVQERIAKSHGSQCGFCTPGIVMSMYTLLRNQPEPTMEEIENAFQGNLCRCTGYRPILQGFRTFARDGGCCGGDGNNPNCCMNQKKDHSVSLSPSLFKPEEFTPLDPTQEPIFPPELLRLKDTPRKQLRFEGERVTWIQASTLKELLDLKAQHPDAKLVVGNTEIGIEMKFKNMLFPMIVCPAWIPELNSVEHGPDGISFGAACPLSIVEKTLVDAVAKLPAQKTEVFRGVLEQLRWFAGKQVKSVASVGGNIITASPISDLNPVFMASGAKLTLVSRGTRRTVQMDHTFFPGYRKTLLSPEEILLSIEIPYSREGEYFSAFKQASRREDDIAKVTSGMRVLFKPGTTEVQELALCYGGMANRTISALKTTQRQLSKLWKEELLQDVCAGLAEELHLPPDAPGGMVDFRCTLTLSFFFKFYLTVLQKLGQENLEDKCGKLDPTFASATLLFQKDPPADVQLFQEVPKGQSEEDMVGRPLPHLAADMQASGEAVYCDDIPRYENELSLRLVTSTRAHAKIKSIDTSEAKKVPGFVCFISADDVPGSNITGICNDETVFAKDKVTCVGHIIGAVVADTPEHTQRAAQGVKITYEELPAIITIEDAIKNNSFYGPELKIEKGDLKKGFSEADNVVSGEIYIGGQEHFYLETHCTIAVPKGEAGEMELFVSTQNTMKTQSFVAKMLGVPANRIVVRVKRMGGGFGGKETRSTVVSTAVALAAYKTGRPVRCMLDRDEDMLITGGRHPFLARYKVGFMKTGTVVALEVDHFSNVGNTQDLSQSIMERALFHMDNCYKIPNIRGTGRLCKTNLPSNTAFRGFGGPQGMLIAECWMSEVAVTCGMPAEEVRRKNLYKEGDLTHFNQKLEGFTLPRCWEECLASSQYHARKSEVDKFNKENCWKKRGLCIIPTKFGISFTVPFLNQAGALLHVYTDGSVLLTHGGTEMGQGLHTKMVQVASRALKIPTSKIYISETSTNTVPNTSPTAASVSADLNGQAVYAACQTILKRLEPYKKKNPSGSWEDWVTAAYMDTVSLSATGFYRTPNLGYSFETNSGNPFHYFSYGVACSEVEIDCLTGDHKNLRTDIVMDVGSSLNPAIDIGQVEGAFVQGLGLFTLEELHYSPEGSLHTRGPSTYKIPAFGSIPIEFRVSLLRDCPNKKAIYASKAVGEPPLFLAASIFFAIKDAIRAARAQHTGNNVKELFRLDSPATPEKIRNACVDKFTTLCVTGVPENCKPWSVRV
Source text: Method D Xanthin oxidase is an enzyme which is released as a result of oxidative stress and catabolizes the degradation of the purine bases adenine and guanine into […] and superoxide anions. The latter dismutate spontaneously or in the presence of superoxide dismutase into hydrogen peroxide and oxygen.
The amount of superoxide anion can be determined by NBT reduction via the optical density at 490 nm. It was investigated whether fewer superoxide anions are generated or more anions are destroyed in the presence of the test substances.
as §1

[4] = Method A: diphenylpicrylhydrazyl free radical, optical density at 513 nm; conditions: DPPH radical
Source text: Method A In a first method, use was made of diphenylpicrylhydrazyl (DPPH^o), a relatively stable free radical which produces a purple-colored solution. The parameter determined was the optical density (DO) at 513 nm. The results are summarized in Table 1; in each case the EC50 values are given in % (w/v).

Row | Molecule | EC50, test method C [1] | EC50, test method B [2] | EC50 ([3]; read-out: EC50, test method D (converted)) | EC50, test method A [4] | EC50, test method D [3]
1 | O=C1O[C@H]([C@@H](O)CO)C(O)=C1O [Ascorbic acid] | 0.9% (w/v) | 0.2607% (w/v) | 33.6 mM | 0.0013 % (w/v) | 
2 | Tocopherol |  |  |  | 0.0067 % (w/v) | no
